This data set is described as follows: Formation as a metabolite in the mammalian system. Particulars: Example 19 is formed in vivo when Example 14 is administered. Further details: species or system mammal. The protocol: For example, Example 19, (5-{(E)-2-(3-{6-[1-methyl-1-(methylsulfonyl)ethyl]-8-quinolinyl}phenyl)-1-[4-(methylslfonyl)phenyl]ehtenyl}-1,2,4-oxadiazol-3-yl)methanol; [drawing 2]
is administered. Accordingly, the present invention includes prodrugs that form PDE4 inhibitors in vivo as a metabolite after administering such prodrugs to a mammal. Further, this invention includes a method of treatment by a step of administering a prodrug to form in vivo an effective amount of a PDE4 inhibitor described by Formula I.

In the case of `Cc1noc(/C(=C/c2cccc(-c3cc(C(C)(C)S(C)(=O)=O)cc4cccnc34)c2)c2ccc(S(C)(=O)=O)cc2)n1` [Example 14, 6-[1-methyl-1-(methylsulfonyl)ethyl]-8-(3-{(E/Z)-2-(3-methyl-1,2,4-oxadiazol-5-yl)-2-[4-(methylsulfonyl)phenyl]ethenyl}phenyl)quinoline], the “metabolite formation in vivo” value was “formed in vivo as a metabolite”. For `CC(C)(c1cc(-c2cccc(/C=C(\c3ccc(S(C)(=O)=O)cc3)c3nc(CO)no3)c2)c2ncccc2c1)S(C)(=O)=O` [Example 19, (5-{(E)-2-(3-{6-[1-methyl-1-(methylsulfonyl)ethyl]-8-quinolinyl}phenyl)-1-[4-(methylsulfonyl)phenyl]ethenyl}-1,2,4-oxadiazol-3-yl)methanol] the value was “formed as a metabolite in the mammalian system”.

The record behind these values is patent US6410563B1, “Substituted 8-arylquinoline phosphodiesterase-4 inhibitors” (Merck Frosst Canada & Co., priority 1999, dated 2002).
